# Calls of active or inactive are those of the source.
# Key:
# H9c2 = assay: cells; type: functional, cell-based; conditions: Rattus norvegicus, H9c2, Myocardium;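 also: confirmatory concentration-response retest of ultra-high-throughput screening hits for modulation of myocardial damage; cell death induced by hydrogen peroxide oxidative stress; compound pretreatment for 60 min then peroxide exposure for 2 h; potency is for protecting the cells against peroxide damage rather than for killing them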
# [1] = Luminescence Cell-Based Dose Response HTS to Identify Inhibitors of 5'UTR Stem-Loop Driven Prion Protein mRNA Translation in H4 Neuroglioblastoma Cells. [Related pubchem assays: 1827 (Project Summary), 1813 (Primary HTS)]; type: functional
# [2] = A Cell Based Secondary Assay To Explore Cytotoxicity of Compounds that Sensitize Mycobacterium Tuberculosis to Beta-Lactam Antibiotics.; type: functional
# [3] = inhibitors of SNCA 5'UTR-driven reporter translation, confirmation, H4 neuroglioma cells, luminescence (AID 1988); type: functional, cell-based
# [4] = inhibitors of firefly luciferase expression or activity, dose response, H4 neuroglioma cells, luminescence (AID 1990); type: functional, cell-based
# Kallikrein-7 = Kallikrein-7 (Homo sapiens, UniProt P49862); assay: Fluorescence Intensity-based biochemical primary high throughput dose response assay to identify activators of kallikrein-7 (K7) zymogen.
# Chain of Kallikrein-7 (P49862 whole entry): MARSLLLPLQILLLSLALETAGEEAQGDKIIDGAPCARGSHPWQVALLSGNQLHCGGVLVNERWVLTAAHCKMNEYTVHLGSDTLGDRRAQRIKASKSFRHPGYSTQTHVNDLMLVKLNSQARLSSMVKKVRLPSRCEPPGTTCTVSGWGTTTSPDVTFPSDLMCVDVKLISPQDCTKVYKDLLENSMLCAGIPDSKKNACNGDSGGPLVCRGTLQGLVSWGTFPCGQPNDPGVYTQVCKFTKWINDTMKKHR
# [5] = target: T1, Mannose-6-phosphate isomerase (Homo sapiens, UniProt P34949); assay: human PMI inhibitors, high substrate, primary screen, biochemical, fluorescence intensity, high mannose 6-phosphate (AID 1220)
# T1 sequence (P34949 whole entry): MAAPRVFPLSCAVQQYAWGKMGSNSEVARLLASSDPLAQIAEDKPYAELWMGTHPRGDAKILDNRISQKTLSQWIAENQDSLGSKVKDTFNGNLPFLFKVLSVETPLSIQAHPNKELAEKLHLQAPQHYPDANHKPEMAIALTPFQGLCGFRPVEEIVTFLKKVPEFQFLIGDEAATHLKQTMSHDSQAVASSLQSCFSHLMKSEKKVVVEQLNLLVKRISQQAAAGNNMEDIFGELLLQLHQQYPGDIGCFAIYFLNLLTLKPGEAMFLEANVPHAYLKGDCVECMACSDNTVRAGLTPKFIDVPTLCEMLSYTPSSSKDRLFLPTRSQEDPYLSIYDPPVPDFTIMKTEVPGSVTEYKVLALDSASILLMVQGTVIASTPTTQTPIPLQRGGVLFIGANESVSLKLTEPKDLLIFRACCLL
# INS1 = assay: beta cell apoptosis inhibitors, cytokine rescue, dose response, luminescence, retest (AID 449756); type: functional, cell-based; conditions: Rattus norvegicus;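 also: cell death triggered by IL-1 beta plus TNF-alpha plus IFN-gamma mixture; protective hits raise ATP signal compared with cytokine alone wells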
# [6] = target: 72 kDa type IV collagenase (Homo sapiens, UniProt P08253); assay: Dose Response validation of uHTS RPN11 inhibitor hits using a MMP-2 Fluorescence assay.; type: functional
# Chain of 72 kDa type IV collagenase (P08253 whole entry): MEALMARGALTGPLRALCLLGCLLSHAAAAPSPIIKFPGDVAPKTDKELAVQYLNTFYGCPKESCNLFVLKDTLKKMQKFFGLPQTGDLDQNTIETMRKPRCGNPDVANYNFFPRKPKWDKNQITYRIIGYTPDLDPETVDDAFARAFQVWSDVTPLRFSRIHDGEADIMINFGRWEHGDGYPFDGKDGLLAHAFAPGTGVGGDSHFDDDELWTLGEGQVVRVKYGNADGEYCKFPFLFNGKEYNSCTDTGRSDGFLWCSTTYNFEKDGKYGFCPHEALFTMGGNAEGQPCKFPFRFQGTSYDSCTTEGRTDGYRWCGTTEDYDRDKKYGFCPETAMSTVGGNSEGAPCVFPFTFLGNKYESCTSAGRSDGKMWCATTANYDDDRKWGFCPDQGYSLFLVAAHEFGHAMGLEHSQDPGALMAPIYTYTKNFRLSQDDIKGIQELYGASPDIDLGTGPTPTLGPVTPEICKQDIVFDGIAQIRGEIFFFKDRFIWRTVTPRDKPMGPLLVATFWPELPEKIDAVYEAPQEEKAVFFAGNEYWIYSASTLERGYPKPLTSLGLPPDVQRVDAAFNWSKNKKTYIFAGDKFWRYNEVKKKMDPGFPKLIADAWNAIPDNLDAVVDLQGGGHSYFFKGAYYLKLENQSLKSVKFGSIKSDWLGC
# [7] = target: 26S proteasome non-ATPase regulatory subunit 14 (Homo sapiens, UniProt O00487); assay: inhibition of proteasome subunit RPN11 – biochemical, fluorescence polarization, uHTS hits, confirmation (AID 602368); type: functional
# Chain of 26S proteasome non-ATPase regulatory subunit 14 (O00487 whole entry): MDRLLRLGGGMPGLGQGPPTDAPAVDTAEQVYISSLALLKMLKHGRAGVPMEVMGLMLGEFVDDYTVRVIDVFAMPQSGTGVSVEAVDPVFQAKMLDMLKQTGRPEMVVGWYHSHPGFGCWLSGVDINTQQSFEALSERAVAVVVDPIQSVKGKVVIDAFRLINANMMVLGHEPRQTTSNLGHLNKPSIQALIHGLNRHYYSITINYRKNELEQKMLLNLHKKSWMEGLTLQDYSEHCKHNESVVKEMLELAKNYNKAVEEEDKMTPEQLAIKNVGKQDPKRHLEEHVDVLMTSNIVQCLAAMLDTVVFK
# Prothrombin = Prothrombin (Bos taurus, UniProt P00735); assay: thrombin inhibition, dose response, biochemical, fluorescence polarization, uHTS hits (AID 602369); type: functional
# BJ [8] = assay: cells; type: functional, cell-based; conditions: Homo sapiens
# [9] = cytotoxicity toward DRD oncogenic fibroblasts, dose response, cell-based, non-viral oncogenic, luminescence (AID 1934); type: functional; conditions: Homo sapiens
# BJ [10] = assay: cytotoxicity toward BJ-TERT fibroblasts, dose response, cell-based, RAS-independent, luminescence (AID 1933); type: functional; conditions: Homo sapiens
# BJ [11] = assay: cytotoxicity toward BJ-TERT-LT-ST fibroblasts, dose response, cell-based, RAS-independent, luminescence (AID 1935); type: functional; conditions: Homo sapiens;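 also: BJ fibroblasts immortalized with TERT plus LT and ST oncogenes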
# [12] = ZM109 Env clade C HIV-1 fusion inhibitors, dose response, HeLa effector, CEM target cells, luciferase, cherry-pick (AID 652058); type: functional, cell-based
# [13] = inhibitors of clade B AD8 Env fusion, dose response, cell-based, cherry-pick (AID 652062); type: functional;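 also: luciferase signal from cell-cell fusion driven by HIV-1 clade B AD8 Env; potency is for inhibitors of fusion seen as a drop in luminescence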
# [14] = inhibitors of HIV Env-driven cell fusion, dose response, cherry-pick (AID 652057); type: functional, cell-based
# [15] = A cytotoxicity screen of small molecule inhibitors of the PhoP region in Salmonella typhi identified in the primary screen. [Related pubchem assays: 1850, 1864, 1985 ]; type: functional
# [16] = HEp-2 cell cytotoxicity, dose response, cytotoxicity control for RSV inhibitor project, HTS (AID 2410); type: functional; conditions: human respiratory syncytial virus
# [17] = off-target signal loss in HeLa-CEM21 co-culture – HeLa F-luc CTL cells, cherry-picked, counter-screen for HIV-1 Env fusion inhibitor project, dose response (AID 652040); type: functional, cell-based;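 also: potency for signal decrease marking cytotoxic or nonspecific inhibition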
# Paired box protein Pax-8 = Paired box protein Pax-8 (Homo sapiens, UniProt Q06710); assay: inhibitors of PAX8-driven TPO luciferase reporter, dose response, RMG-I cells, cherry-pick (AID 687027); type: functional, cell-based;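 also: luciferase reporter driven by Pax8 target thyroperoxidase promoter measured by SteadyGlo luminescence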
# Chain of Paired box protein Pax-8 (Q06710 whole entry): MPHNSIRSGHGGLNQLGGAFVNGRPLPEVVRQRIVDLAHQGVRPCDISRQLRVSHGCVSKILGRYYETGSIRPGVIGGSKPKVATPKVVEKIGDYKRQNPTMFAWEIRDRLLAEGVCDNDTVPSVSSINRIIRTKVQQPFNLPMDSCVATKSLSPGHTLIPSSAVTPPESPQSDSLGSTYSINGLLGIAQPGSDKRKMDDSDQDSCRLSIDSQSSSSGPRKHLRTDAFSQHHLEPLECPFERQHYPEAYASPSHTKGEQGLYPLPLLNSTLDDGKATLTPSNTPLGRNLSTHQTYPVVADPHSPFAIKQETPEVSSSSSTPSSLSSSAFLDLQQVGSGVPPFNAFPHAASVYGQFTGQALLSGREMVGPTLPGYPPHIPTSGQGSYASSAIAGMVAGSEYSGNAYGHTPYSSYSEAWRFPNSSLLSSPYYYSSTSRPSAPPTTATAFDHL
# [18] = IGROV1 ovarian cancer cell cytotoxicity, dose response, PAX8 inhibitor project, plate reader, dry powder samples (AID 743043); type: functional, cell-based; conditions: IGROV-1
# [19] = NIH:OVCAR-3 ovarian cancer cell cytotoxicity, dose response, PAX8 inhibitor project, plate reader, dry powder samples (AID 743044); type: functional, cell-based
smiles,measurement,setting,value
COc1ccccc1NC(=O)COc1ccc(C(=O)OCC(=O)NC(C)(C)C)cc1OC,IC50,H9c2,> 79 µM (inactive)
CCOC(=O)/C=c1\s/c(=C\c2c(OC)ccc3ccccc23)c(=O)n1CC(=O)NCC1CCCO1 (stereo not drawn),EC50,[1],12.3 µM (active)
same,CC50,[2],12.6 µM (active)
same,EC50,[3],8.43 µM (active)
same,EC50,[4],10.5 µM (active)
CCc1cc2c(CN3CCN(Cc4ccccc4)CC3)cc(=O)oc2cc1O,EC50,Kallikrein-7,> 69.5 µM (inactive)
Oc1ccc(CNc2ccccc2)c2cccnc12,IC50,[5],> 50 µM (not active)
same,AC50,INS1,14.4 µM (active)
CCOC(=O)Cc1csc(NC(=O)c2sc3nc4ccc(C)cc4cc3c2N)n1,IC50,[6],> 100 µM (inactive)
same,IC50,[7],33.9 µM (active)
same,IC50,Prothrombin,77.9 µM (active)
COc1cc(Nc2c3c(nc4ccccc24)CCC3)cc(OC)c1OC,EC50,BJ [8],42.7 µM (inconclusive)
same,EC50,[9],2.38 µM (active)
same,EC50,BJ [10],2.86 µM (active)
same,EC50,BJ [11],18.5 µM (inconclusive)
COC(=O)C1=C(C)N(CC2CC2)C(=O)N[C@H]1c1ccc(Br)cc1,AC50,[12],14.7 µM (active)
same,AC50,[13],8.52 µM (active)
same,AC50,[14],7.14 µM (active)
same,EC50,[15],> 50 µM (active)
same,CC50,[16],35.1 µM (active)
same,AC50,[17],11.7 µM (active)
Cc1cc2nc(-c3ccc(SCc4ccccn4)nc3)[nH]c2cc1C,EC50,Kallikrein-7,12.9 µM (inactive)
C[C@H]1CCCCO[C@H](CN(C)C(=O)Nc2ccc(C(F)(F)F)cc2)[C@@H](C)CN([C@@H](C)CO)C(=O)c2cc(NC(=O)CCC(F)(F)F)ccc2O1,AC50,Paired box protein Pax-8,6.57 µM (active)
same,AC50,[18],54.7 µM (active)
same,AC50,[19],39.9 µM (active)
COc1ccc(Cl)cc1NC(=O)CN(C)C(=O)c1ccc(N2CCCCCC2)c([N+](=O)[O-])c1,CC50,[2],> 40 µM (active)
CCN1CCN(c2nc(O)c3c(n2)CCC3)CC1,IC50,H9c2,> 79 µM (inactive)
COc1ccccc1C(=O)N1CC2(C)CC1CC(C)(C)C2 (stereo not drawn),EC50,[15],> 50 µM (active)

# Source: ChEMBL document CHEMBL1201862, “PubChem BioAssay data set” (2004)
